Test results as given in ChEMBL document CHEMBL1133722 (J Med Chem, 2000).
pKi: −log10 of the molar value.

Key:
Type in all cases: cell-based, Cercopithecidae
Mu-type opioid receptor [1] = molecular target: T1, Mu-type opioid receptor (Homo sapiens, UniProt P35372); assay: Binding affinity using [3H]diprenorphine as the radioligand against wild-type Opioid receptor mu 1 in COS-7 cells
[2] = molecular target: Kappa-type opioid receptor (Homo sapiens, UniProt P41145, E297A); assay: Binding affinity using [3H]diprenorphine as the radioligand against E297A mutant Opioid receptor kappa 1 in COS-7 cells
[3] = molecular target: T2, Kappa-type opioid receptor (Homo sapiens, UniProt P41145); assay: Binding affinity using [3H]diprenorphine as the radioligand against wild-type Opioid receptor kappa 1 in COS-7 cells
Mu-type opioid receptor [4] = molecular target: T1, Mu-type opioid receptor; assay: Binding affinity using [3H]diprenorphine as the radioligand against K303E Opioid receptor mu 1 in COS-7 cells
[5] = molecular target: Kappa-type opioid receptor (Homo sapiens, UniProt P41145, E297K); assay: Binding affinity using [3H]diprenorphine as the radioligand against E297K mutant Opioid receptor kappa 1 in COS-7 cells
[6] = molecular target: T2, Kappa-type opioid receptor; assay: Binding affinity using [3H]diprenorphine as the radioligand against wild-type Opioid receptor kappa 1r in COS-7 cells

T1 sequence (P35372 whole entry): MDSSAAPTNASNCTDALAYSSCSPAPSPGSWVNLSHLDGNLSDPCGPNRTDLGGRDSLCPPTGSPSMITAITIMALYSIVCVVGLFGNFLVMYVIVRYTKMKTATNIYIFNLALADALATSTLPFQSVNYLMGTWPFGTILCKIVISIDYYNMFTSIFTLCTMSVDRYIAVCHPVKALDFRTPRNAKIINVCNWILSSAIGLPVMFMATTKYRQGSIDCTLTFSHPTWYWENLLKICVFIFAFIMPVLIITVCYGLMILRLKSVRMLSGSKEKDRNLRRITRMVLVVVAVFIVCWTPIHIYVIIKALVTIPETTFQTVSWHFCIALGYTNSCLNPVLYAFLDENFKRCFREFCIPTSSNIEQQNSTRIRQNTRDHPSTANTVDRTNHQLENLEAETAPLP
Kappa-type opioid receptor (Homo sapiens, UniProt P41145, E297A), sequence (P41145 whole entry E297A): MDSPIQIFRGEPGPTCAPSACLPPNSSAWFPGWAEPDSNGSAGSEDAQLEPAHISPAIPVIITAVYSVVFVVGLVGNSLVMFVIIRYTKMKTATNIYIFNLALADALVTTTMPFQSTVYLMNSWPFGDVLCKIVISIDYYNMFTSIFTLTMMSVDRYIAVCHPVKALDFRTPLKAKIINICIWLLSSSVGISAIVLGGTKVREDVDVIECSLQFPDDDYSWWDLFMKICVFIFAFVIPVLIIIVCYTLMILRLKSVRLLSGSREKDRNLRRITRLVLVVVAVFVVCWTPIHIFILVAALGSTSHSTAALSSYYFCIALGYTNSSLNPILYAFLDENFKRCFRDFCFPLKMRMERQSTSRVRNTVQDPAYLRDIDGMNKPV
T2 sequence (P41145 whole entry): as the sequence (P41145 whole entry E297A) above, with A297E counted along it
Kappa-type opioid receptor (Homo sapiens, UniProt P41145, E297K), sequence (P41145 whole entry E297K): as the sequence (P41145 whole entry E297A) above, with A297K counted along it

| Structure (SMILES) | pKi (Mu-type opioid receptor [1]) | pKi [2] | pKi [3] | pKi (Mu-type opioid receptor [4]) | pKi [5] | pKi [6] |
| --- | --- | --- | --- | --- | --- | --- |
| CC(=O)N1CC[C@]23c4c5ccc(O)c4O[C@H]2c2[nH]c4c(c2C[C@@]3(O)[C@H]1C5)C[C@@]1(O)[C@H]2Cc3ccc(O)c5c3[C@@]1(CCN2CC1CC1)[C@H]4O5 | 6.99 | 6.98 | 7.63 | 7.38 | 6.98 |  |
| CN1CC[C@]23c4c5ccc(O)c4O[C@H]2c2[nH]c4c(c2C[C@@]3(O)[C@H]1C5)C[C@@]1(O)[C@H]2Cc3ccc(O)c5c3[C@@]1(CCN2C)[C@H]4O5 | < 6.00 | < 6.00 | 7.66 | 7.38 | < 6.00 |  |
| CN1CC[C@]23c4c5ccc(O)c4O[C@H]2c2[nH]c4c(c2C[C@H]3[C@H]1C5)C[C@@]1(O)[C@H]2Cc3ccc(O)c5c3[C@@]1(CCN2CC1CC1)[C@H]4O5 | 7.40 | 7.40 | 9.49 | 9.80 | 7.40 |  |
| COc1ccc2c3c1O[C@H]1c4[nH]c5c(c4C[C@@]4(O)[C@@H](C2)N(CC2CC2)CC[C@]314)C[C@@]1(O)[C@H]2Cc3ccc(O)c4c3[C@@]1(CCN2CC1CC1)[C@H]5O4 | 6.56 | 7.77 | 9.41 | 8.57 | 7.55 |  |
| COc1ccc2c3c1O[C@H]1c4[nH]c5c(c4C[C@@]4(O)[C@@H](C2)N(CC2CC2)CC[C@]314)C[C@@]1(O)[C@H]2Cc3ccc(O)c4c3[C@@]1(CCN2C)[C@H]5O4 | 6.78 | < 6.00 | 7.44 | 7.28 | < 6.00 |  |
| N=C(N)N1CC[C@]23c4c5ccc(O)c4O[C@H]2c2[nH]c4c(c2C[C@@]3(O)[C@H]1C5)C[C@@]1(O)[C@H]2Cc3ccc(O)c5c3[C@@]1(CCN2CC1CC1)[C@H]4O5 |  |  |  |  | 6.72 | 9.24 |
